Assay results from paper PMC3307315 (The Journal of Biological Chemistry, 2012).

B1: GLUE-WTX: N-terminal streptavidin-binding protein, calmodulin-binding protein, the hemagglutinin epitope (HA), and WTX (protein, UniProt Q5JTC6 1-1135, looked up)
APC membrane recruitment …: METQKDEAAQAKGAAASGSTREQTAEKGAKNKAAEATEGPTSEPSSSGPGRLKKTAMKLFGGKKGICTLPSFFGGGRSKGSGKGSSKKGLSKSKTHDGLSEAAHGPEDVVSEGTGFSLPLPELPCQFPSSQSAHGALETGSRCKTSVAGATEKAVAEKFPSMPKPKKGLKGFFSSIRRHRKSKVTGAEQSEPGAKGPERVRARPHEHVSSAPQVPCFEETFQAPRKENANPQDAPGPKVSPTPEPSPPATEKMACKDPEKPMEACASAHVQPKPAPEASSLEEPHSPETGEKVVAGEVNPPNGPVGDPLSLLFGDVTSLKSFDSLTGCGDIIAEQDMDSMTDSMASGGQRANRDGTKRSSCLVTYQGGGEEMALPDDDDEEEEEEEEVELEEEEEEVKEEEEDDDLEYLWETAQMYPRPNMNLGYHPTTSPGHHGYMLLDPVRSYPGLAPGELLTPQSDQQESAPNSDEGYYDSTTPGFEDDSGEALGLVRRDCLPRDSYSGDALYEFYEPDDSLENSPPGDDCLYDLHGRSSEMFDPFLNFEPFLSSRPPGAMETEEERLVTIQKQLLYWELRREQLEAQEARAREAHAREAHAREAYTREAYGREAYAREAHTWEAHGREARTREAQAREVRCRETQVRETQARQEKPVLEYQMRPLGPSVMGLAAGVSGTSQISHRGITSAFPTTASSEPDWRDFRPLEKRYEGTCSKKDQSTCLMQLFQSDAMFEPDMQEANFGGSPRRAYPTYSPPEDPEEEEVEKEGNATVSFSQALVEFTSNGNLFSSMSCSSDSDSSFTQNLPELPPMVTFDIADVERDGEGKCEENPEFHNDEDLAASLEAFELGYYHKHAFNNYHSRFYQGLPWGVSSLPRYLGLPGLHPRPPPAAMALNRRSRSLDTAETLEMELSNSHLVQGYLESDELQAQQEDSDEEDEEEEEGEWSRDSPLSLYTEPPGAYDWPAWAPCPLPVGPGPAWISPNQLDRPSSQSPYRQATCCIPPMTMSISLSVPESRAPGESGPQLARPSHLHLPMGPCYNLQPQASQSMRARPRDVLLPVDEPSCSSSSGGFSPSPLPQAKPVGITHGIPQLPRVRPEHPQPQPTHYGPSSLDLSKERAEQGASLATSYSSTAMNGNLAK
modifications: streptavidin-binding, calmodulin-binding peptide and HA tags

What was measured:
[1] = tested on: HEK293T cells; test: Cell viability; format: cell-based; details: siRNA knockdown, etoposide, MTT (Fig. 2E)
[2] = tested on: 35S-labeled NRF2; format: biochemical; details: HEK293T cell-free extracts
[3] = tested on: NRF2; details: cited from earlier work
[4] = tested on: endogenous KEAP1; test: Streptavidin affinity pulldown of GLUE-WTX and Western blot, endogenous KEAP1; format: cell-based

Molecule	resistance to apoptosis-inducing reagents (conclusion) [1]	half-life of exogenous NRF2 in cell extracts [2] [h]	half-life of exogenous and endogenous NRF2 in intact cells [3] [h]	complex with endogenous KEAP1 [4]
NRF2: transcription factor NF-E2-related factor-2	promote resistance to apoptotic inducing reagents	~6	~0.333	
B1				endogenous KEAP1 forms a complex with GLUE-WTX
